# Assay results from patent publication US10017712B2, “Method for producing vitamin E-enriched, especially tocotrienol-enriched, compositions from natural oils” (Evonik Degussa GmbH, priority 2014, dated 2018).
# Assays:
# [1] = Partition coefficients of individual tocopherols and tocotrienols, palm oil with ethanol or methanol; assay type: physicochemical
# Procedure: Table 3 provides values of the individual partition coefficient values of tocopherol and tocotrienol compounds found in palm oil. The values were measured by contacting palm oil and ethanol (denoted PC Eth in Table 3) and palm oil and methanol (denoted PC Meth in Table 3) at the oil to solvent ratios noted in the table—e.g. PC Eth 1:5 means that one volume of palm oil was contacted with 5 volumes of ethanol.
# [2] = Single stage methanol extraction of vegetable oils, partition coefficient; assay type: physicochemical
# Procedure: First methanol was tested for its efficiency in extracting of α-tocopherol and FFA from three vegetable oils. 200-300 ml of oil was mixed with the solvent using a magnetic stirrer at 35° C. The mixture is gravity separated and the oil stayed at the bottom. Partition coefficients of α-tocopherol and FFA were obtained by measuring the concentration of both compounds in the extract and the bottom fraction without evaporation of the solvent. The partition coefficient is calculated as follows: PC=(concentration in the extract)/(concentration in the bottom fraction).
# [3] = PC Meth 1:1 (palm oil:methanol)
# [4] = PC Meth 1:2 (palm oil:methanol)
# [5] = PC Meth 1:3 (palm oil:methanol)
# [6] = PC Meth 1:5 (palm oil:methanol)
# [7] = PC Meth 1:7 (palm oil:methanol)
Structure (SMILES),Partition coefficient ([1]; PC Eth 1:1 (palm oil:ethanol)),Partition coefficient ([1]; PC Eth 1:2 (palm oil:ethanol)),Partition coefficient ([1]; PC Eth 1:3 (palm oil:ethanol)),Partition coefficient ([1]; PC Eth 1:5 (palm oil:ethanol)),Partition coefficient ([1]; PC Eth 1:7 (palm oil:ethanol)),"Partition coefficient [1, 3]","Partition coefficient [1, 4]","Partition coefficient [1, 5]","Partition coefficient [1, 6]","Partition coefficient [1, 7]","Partition coefficient ([2]; Palm Oil, Solvent:Oil Ratio 2:1, 35° C.)","Partition coefficient ([2]; Rapeseed Oil, Solvent:Oil Ratio 3:1, 35° C.)","Partition coefficient ([2]; Rice Bran Oil, Solvent:Oil Ratio 2:1, 35° C.)"
Cc1c(C)c2c(c(C)c1O)CC[C@@](C)(CCC[C@H](C)CCC[C@H](C)CCCC(C)C)O2 [α-tocopherol],0.30,0.31,0.25,0.42,0.22,0.21,0.15,0.21,0.11,0.09,0.15,0.39,0.20
Cc1cc(O)cc2c1O[C@](C)(CCC[C@H](C)CCC[C@H](C)CCCC(C)C)CC2 [Delta-tocopherol],0.50,0.47,,0.53,0.29,0.25,0.07,,0.09,0.01,,,
CC(C)=CCC/C(C)=C/CC/C(C)=C/CC[C@]1(C)CCc2cc(O)c(C)c(C)c2O1 [Gamma-tocotrienol],0.72,0.81,0.85,0.79,0.53,1.17,0.64,0.76,0.46,0.36,,,
